Measurements published in patent publication US5770625A, “Butyryl-tyrosinyl spermine, analogs thereof and methods of preparing and using same” (priority 1994, dated 1998).
Like-named read-outs stand apart in the source and are kept apart here.

Tested on: postsynaptic QUIS-R of locust leg muscle
Assay: Antagonism of neurally-evoked twitch contraction of locust retractor unguis nerve-muscle preparation
Set-up: species or system Schistocerca gregaria
Conditions: for IC50: read-out: IC50
Description: Electrophysiological studies. The metathoracic retractor unguis nerve-muscle preparation of the locust Schistocerca gregaria was dissected and mounted in a small Perspex bath as described previously (21). The pharmacological activity on the locust nerve muscle preparation, using reduction in neurally evoked twitch amplitude as the measure of activity. Ten fractions were pharmacologically active. […] Further purification of this fraction by reverse-phase HPLC gave four peaks (FIG. 2B), the most pharmacologically was in the major peak (hatched FIG. 2B) . This fraction gave 1.1 mg of toxin as amorphous powder.
The retractor unguis muscle and its nerve were dissected from the metathoracic legs of adult, female locusts (Schistocerca gregaria) and mounted in a Perspex perfusion chamber as described by Usherwood and Machili (21) and Bateman, et al. (14). The muscle was stretched to maximal body length and attached at its tendon or apodeme to a Grass FT 10-strain gauge by a short length of nylon thread. The volume of the muscle bath was about 0.5 ml and its contents could be exchanged within 1 sec. The preparation was perfused continuously at the rate of 5-10 ml min^-1 (except during the application of toxin (see below)) with standard locust saline of the following composition (mM): NaCl, 180; KCl, 10; CaCl2, 2; Hepes, 10; buffered to pH 6.8. The retractor unguis muscle is innervated by two excitatory motoneurons (30) and an inhibitory motoneuron (19,32), but the influence of the latter on the responsiveness of the muscle is slight. Maximal stimulation of the retractor unguis nerve at 0.2 Hz produced a series of twitch contractions of constant amplitude, which were maintained for many hours in good preparations. The test compounds were kept at -20° C. They were dissolved in locust saline on the day of the assay and tested at room temperature. The compounds were applied by pipette to a nerve-muscle preparation such that the contents of the perfusion bath were completely replaced by the test solution. Exposure to the test compound lasted 20 min. Because of the limited availability of some of the compounds, the preparation was not perfused during this period. However, the amplitude of the retractor unguis muscle twitch rarely changed by more than 5-10% over a 20 minute period. During application of the test solutions the stimulation frequency was raised to 0.6 Hz for brief periods to test for stimulus frequency-dependent effects on twitch amplitude (31,37). Dose-inhibition data were obtained by testing the effects, on single retractor unguis muscle preparations, of a range of concentrations of the test compounds. Each concentration of the respective samples was tested at least thee times, and each compound was assayed usually over a 100-fold concentration range (a total of 7-10 concentrations). The standard deviations for twitch inhibition for any given concentration of a toxin rarely exceed 10%. Those compounds for which the deviation was greater than this are identified in Tables 1-7. There was some variation in the potency of PhTX-343 and the test compounds between nerve-muscle preparations. In order to compensate for this, the following procedure was adopted: PhTX-343 was assayed at a variety of concentrations on eight retractor unguis nerve-muscle preparations to give a cumulative dose-inhibition relationship for this toxin. The concentration of PhTX-343 which reduced the twitch contraction by 50% (IC50) was then determined by fitting a curve to the data using the following equation: [formula] where: [T]= toxin concentration, I= % inhibition, Imax =maximum inhibition= 100% and n' represents the Hill slope coefficient. […] The ratio of the actual reduction in twitch amplitude obtained with this single concentration of PhTX-343 and the 50% reduction that was anticipated from the cumulative dose-inhibition relationship for this toxin, was then used as a factor to normalize the data for the test compound. […]

[1] = Table 4, terminal amino group modifications, * SD < 20%
[2] = Table 4, relative to PhTX-343 = 1.0
[3] = Table 2, region B modifications, * SD < 20%
[4] = Table 2, relative to PhTX-343 = 1.0
[5] = Table 3, region C modifications
[6] = Table 3, relative to PhTX-343 = 1.0
[7] = Table 5, modifications to more than one region
[8] = Table 1, region A modifications, 20 min exposure, normalized with PhTX-343, ** SD < 30%
[9] = Table 1, relative to PhTX-343 = 1.0
[10] = Table 7, mono-acyl spermine analogues

CCCCCCC(=O)NCCCNCCCCNCCCN [Compound 48, Heptanoylspermine-amide]
potency compared with PhTX-343 or other analogues (in words): low potencies

CCCC(=O)N[C@@H](Cc1ccc(O)cc1)C(=O)NCCCNCCCCNCCCNC(=O)CN [drawing 59]
IC50 [1]: 100 µM
Relative Potency [2]: 0.2

CCCC(=O)N[C@@H](CC(C)C)C(=O)NCCCNCCCCNCCCN [Compound 14]
potency compared with PhTX-343 or other analogues (in words): unchanged

CCCC(=O)N[C@@H](Cc1ccccc1)C(=O)NCCCNCCCCNCCCN [Compound 10]
potency compared with PhTX-343 or other analogues (in words): increased potency about three-fold
IC50 [3]: 6.7 µM
Relative Potency [4]: 3.4

CCCC(=O)NCC(=O)NCCCNCCCCNCCCN [Compound 16, N-butyryl-L-glycine-spermine-amide]
potency compared with PhTX-343 or other analogues (in words): greatly reduced activity

C/C=C/C=C/C(=O)N[C@@H](Cc1ccc(O)cc1)C(=O)NCCCNCCCCNCCCN [drawing 45]
IC50 [5]: 1.6 µM
Relative Potency [6]: 14.0

[N-]=[N+]=Nc1ccc(C(=O)N[C@@H](Cc2cc(I)c(O)c(I)c2)C(=O)NCCCNCCCCNCCCNC(=O)[C@@H](N)CCCCN)cc1 [drawing 68]
IC50 [7]: 1.8 µM
Relative Potency (Table 5, relative to PhTX-343): 13

CCCC(=O)N[C@@H](Cc1cc(I)c(O)c(I)c1)C(=O)NCCCNCCCCNCCCNC(=O)[C@@H](N)CCCCN [drawing 65]
IC50 [7]: 1.7 µM
Relative Potency (Table 5, relative to PhTX-343): 14

CCCC(=O)N[C@@H](Cc1ccc(O)cc1)C(=O)NCCCNCCCCNCCCNC(=O)CCCN [Compound 34]
potency compared with PhTX-343 or other analogues (in words): potency was reduced

CCCC(=O)N[C@@H](Cc1ccc(O)cc1)C(=O)NCCCCNCC(C)CNCCCN (stereo partly shown) [drawing 27]
IC50 [8]: 40 µM
Relative Potency [9]: 0.6

CCCC(=O)N[C@@H](Cc1ccc(O)cc1)C(=O)NCCCCN [Compound 5, PhTX-4]
potency compared with PhTX-343 or other analogues (in words): reduced potency

CCCC(=O)N[C@@H](Cc1ccc(O)cc1)C(=O)NCCCNCCCCNCCCNC(=O)C(N)CCCCNC(=O)C(N)CCCCN (stereo partly shown) [Compound 37]
potency compared with PhTX-343 or other analogues (in words): more active than compound 35

CCCC(=O)N[C@@H](Cc1ccc(O)cc1)C(=O)NCCCNCCCCNCCCNC(=O)[C@@H](N)CCCNC(=N)N [Compound 36, PhTX-343-L-arginine-amide]
potency compared with PhTX-343 or other analogues (in words): increased potency

CCCCCCCCCC(=O)NCCCNCCCCNCCCN [drawing 78]
IC50 [10]: 10 µM
Relative Potency (Table 7, mono-acyl spermine analogues, relative to PhTX-343): 2.3

CCCC(=O)N[C@@H](Cc1ccc(O)cc1)C(=O)NCCCCNCCCNCCCN [drawing 22]
IC50 [8]: 18 µM
Relative Potency [9]: 1.3

CCCC(=O)N[C@@H](C)C(=O)NCCCNCCCCNCCCN [drawing 37]
IC50 [3]: 45 µM
Relative Potency [4]: 0.5

CCCC(=O)N[C@@H](Cc1ccc(O)cc1)C(=O)NCCCCN [drawing 25]
IC50 [8]: 2000 µM
Relative Potency [9]: 0.01

CCCC(=O)N[C@@H](Cc1ccc(O)cc1)C(=O)NCCCNCCCCNCCCNC(=O)CCCN [drawing 60]
IC50 [1]: 68 µM
Relative Potency [2]: 0.3

CCCC(=O)N[C@@H](Cc1ccc(OC(C)=O)cc1)C(=O)NCCCNCCCCNCCCN [drawing 33]
IC50 [3]: 33 µM
Relative Potency [4]: 0.7

CCCC(=O)N[C@@H](Cc1ccc(O)cc1)C(=O)NCCCNCCCCNCCCN [drawing 31]
IC50 [3]: 23 µM
Relative Potency [4]: 1.0

NCCCNCCCCNCCCNC(=O)[C@H](Cc1ccc(O)cc1)NC(=O)Cc1ccccc1 [drawing 48]
IC50 [5]: 12 µM
Relative Potency [6]: 0.5

CCCC(=O)N[C@@H](Cc1ccc(O)cc1)C(N)=O [Compound 6, PhTX-0]
potency compared with PhTX-343 or other analogues (in words): slightly more active than PhTX-4

CCCC(=O)N[C@@H](Cc1ccc(O)cc1)C(=O)NCCCNCCCCNCCCN [drawing 57]
IC50 [1]: 23 µM
Relative Potency [2]: 1.0

CCCC(=O)NCCCNCCCCNCCCN
IC50 (M) [10]: agonist

CCCC(=O)N[C@@H](C)C(=O)NCCCNCCCCNCCCN [Compound 15]
potency compared with PhTX-343 or other analogues (in words): slightly reduced

CCCC(=O)N[C@@H](Cc1ccc(O)cc1)C(=O)NCCC[N+](C)(C)CCCC[N+](C)(C)CCC[N+](C)(C)C [Compound 9]
potency compared with PhTX-343 or other analogues (in words): reduced potency compared with PhTX-343

NCCCNCCCCNCCCNC(=O)[C@H](Cc1ccc(O)cc1)NC(=O)/C=C/c1ccccc1 [drawing 49]
IC50 [5]: 2 µM
Relative Potency [6]: 12.0

NCCCNCCCCNCCCNC(=O)[C@H](Cc1ccc(O)cc1)NC(=O)C1CCCCC1 [Compound 22]
potency compared with PhTX-343 or other analogues (in words): equal to that of compound 19

CCCC(=O)N[C@@H](Cc1ccc(O)cc1)C(=O)NCCCNCCCNCCCCN [drawing 23]
IC50 [8]: 15 µM
Relative Potency [9]: 1.5

CCCCCCC(=O)N[C@@H](Cc1ccc(O)cc1)C(=O)NCCCNCCCCNCCCN [drawing 43]
IC50 [5]: 10 µM
Relative Potency [6]: 2.7

CCCC(=O)N[C@@H](Cc1ccc(O)cc1)C(=O)NCCC[N+](C)(C)CCCC[N+](C)(C)CCC[N+](C)(C)C [drawing 29]
IC50 [8]: 130 µM
Relative Potency [9]: 0.2

C/C=C/C=C/C(=O)N[C@@H](Cc1ccc(O)cc1)C(=O)NCCCNCCCCNCCCN [Compound 21]
potency compared with PhTX-343 or other analogues (in words): very potent

[N-]=[N+]=Nc1ccc(C(=O)N[C@@H](Cc2cc(I)c(O)c(I)c2)C(=O)NCCCNCCCCNCCCNC(=O)[C@@H](N)CCCCN)cc1 [Compound 41, N- (.rho.-azidobenzamide)-di-iodo-L-tyrosyl-spermine-L-lysine-triamide]
potency compared with PhTX-343 or other analogues (in words): more potent than the latter

CCCC(=O)N[C@@H](Cc1cc(I)c(O)c(I)c1)C(=O)NCCCNCCCCNCCCNC(=O)[C@@H](N)CCCNC(=N)N [Compound 39, diiodo-PhTX-arginine]
potency compared with PhTX-343 or other analogues (in words): more potent than PhTX-343

NCCCNCCCCNCCCNC(=O)[C@H](Cc1ccc(O)cc1)NC(=O)c1ccccc1 [drawing 47]
IC50 [5]: 2.83 µM
Relative Potency [6]: 8.2

CCCC(=O)NCC(=O)NCCCNCCCCNCCCN [drawing 38]
IC50 [3]: 130 µM
Relative Potency [4]: 0.2

NCCCNCCCCNCCCNC(=O)[C@H](Cc1ccc(O)cc1)NC(=O)/C=C/c1ccccc1 [Compound 25]
potency compared with PhTX-343 or other analogues (in words): greatly increased potency

CCCC(=O)N[C@@H](Cc1ccc(O)cc1)C(=O)NCCCCNCC(C)CNCCCN (stereo partly shown) [Compound 7]
potency compared with PhTX-343 or other analogues (in words): did not greatly alter potency

[N-]=[N+]=C(C(=O)NCCCC(=O)N[C@@H](Cc1ccc(O)cc1)C(=O)NCCCNCCCCNCCCN)C(F)(F)F [drawing 51]
IC50 [5]: 290 µM
Relative Potency [6]: 0.1

CCCC(=O)N[C@@H](Cc1ccc(O)cc1)C(=O)NCCCNCCCCNCCCN [drawing 41]
IC50 [5]: 23 µM
Relative Potency [6]: 1.0

CCCC(=O)N[C@@H](Cc1ccc(O)cc1)C(=O)NCCCNCCCCNCCCN [drawing 21]
IC50 [8]: 23 µM
Relative Potency [9]: 1.0

NCCCNCCCCNCCCNC(=O)[C@H](Cc1ccc(O)cc1)NC(=O)CCCCC1SCC2NC(=O)NC21 (stereo partly shown) [Compound 30]
IC50 (M) [5]: insol.

CCCCCCCCCC(=O)N[C@@H](Cc1ccc(O)cc1)C(=O)NCCCNCCCCNCCCN [Compound 20, C10-PhTX-343]
potency compared with PhTX-343 or other analogues (in words): successive increases in potency
IC50 [5]: 1.4 µM
Relative Potency [6]: 16.0
